Patent US20110160055A1, “Imidazole and Triazole Compounds as Fungicides” (BASF SE, priority 2008, published 2011)

Experiments:
Phakopsora pachyrhizi [1] = experiment: Example G1: curative activity against soybean rust, greenhouse, sprayed two days after the 24 h incubation; type: in vivo; details: potted soybean seedlings, 150 ppm aqueous preparation sprayed two days after incubation, rated after a further 10 days; untreated plants 90% infected
Protocol: (§1) Subsequently, it was made up to 100 ml with water. This stock solution was diluted with the solvent/emulsifier/water mixture described to the active compound concentration indicated below. Alternatively to this, the active compounds were used as a commercially available ready-to-use solution and diluted with water to the active compound concentration indicated. Curative activity against soybean rust caused by Phakopsora pachyrhizi Leaves of potted soybean seedlings were inoculated with a spore suspension of soybean rust (Phakpsora pachyrhizi). […] During this time, the spores germinated and the germ tubes penetrated into the leaf tissue. Infected plants were then cultivated further in a greenhouse at temperatures between 23 and 27° C. and 60 to 80% relative atmospheric humidity. After two days, the plants were sprayed to run off point with the active compound solution described above at the active compound concentration stated below. After the spray coating had dried on, the test plants were cultivated in a greenhouse at temperatures between 23 and 27° C. and 60 to 80% relative atmospheric humidity for a further 10 days. The extent of the rust fungus development on the leaves was then determined visually in % infection.

Phakopsora pachyrhizi [2] = experiment: Example G2: curative activity against soybean rust, greenhouse, sprayed directly after the 24 h incubation; type: in vivo; details: potted soybean seedlings, 150 ppm aqueous preparation sprayed after 24 h incubation, rated after a further 14 days; untreated plants 90% infected
Protocol: as §1, with “then” for “then cultivated further in a greenhouse at temperatures between 23 and 27° C. and 60 to 80% relative atmospheric humidity. After two days, the plants were”, “further 14” for “further 10”

Row | SMILES | infection (extent of rust fungus development on the leaves, visual) (Phakopsora pachyrhizi [1]) [%] | infection (extent of rust fungus development on the leaves, visual) (Phakopsora pachyrhizi [2]) [%]
1 | CC(COc1ccccc1Cl)=C(C)CC(C(O)C(C)(C)C)n1cncn1 (centres unmarked) [I.A6b] | 0 | 
2 | CC(COc1cccc(Cl)c1Cl)=C(C)CC(C(O)C(C)(C)C)n1cncn1 (centres unmarked) [I.A14a] |  | 0
